The values that follow come from US9011925B2, “Method for preparing polysaccharide nanocomposite particles and uses of the same” (China Medical University, priority 2011, dated 2015).

For series [1], the system named is lung cancer cells, breast cancer cells, and rectal cancer cells. As to conditions: cited from earlier work.
The next series has as its system p53 protein. The following applies: HepG2/A2 cells; cited from earlier work.
The next series concerns HepG2/A2. The following applies: cited from earlier work.
For series [2], the system named is Colo 205 human rectum tumor cells. In words: Cytotoxicity assay (MTT). Format: cell-based. The following applies: colo 205 cells, 72th hour, read-out: 1050 (50% concentration of inhibition). As for the experimental part: Colo 205 human rectum tumor cells were inoculated in a 24-well culture dish (1×10^4 cells/well), and incubated in an incubator at 37° C. under 5% CO2 for 24 hours. Then, the active component (KCY-Tai 1 and KCY-Tai 2) or polysaccharide nanocomposite particles (KCY-Tai 1-CNPs and KCY-Tai 2-CNPs 2) with different concentrations (0.39 to 12.5 μg/ml) was respectively added into the culture dish, and the cells were incubated for 24, 72, and 120 hours. The cells were washed with 1×PBS twice. MTT (3-(4,5-dimethyl thiazole-2-yl)-2,5-diphenyl tetrazolium bromide) (0.5 mg/ml) was added to the culture dish (200 μl/well), and the dish was placed in an incubator at 37° C. under 5% CO2. After incubating for 4 hours, MTT was sucked out and removed, and […] dimethyl sulfoxide (DMSO) was added into each well. After incubating on the shaker for 30 minutes, […] of the sample was sucked out from each well and transferred into a 96-well culture dish. The absorbance of the sample was determined under the wavelength of 570 nm by an enzyme-linked immunosorbent assay (ELISA) reader.

Series [3] can be described thus: Surface potential analysis (Zetasizer, DLS). The following applies: diluted 50-folds with water, sonicated 1 hour. Format: physicochemical. As for the experimental part: [Surface Potential Analysis]
The samples were diluted 50-folds with water, and sonicated for 1 hour by using an ultrasonic vibration machine. Then, the samples dissolved in water were analyzed by using a Zetasizer machine (Malvern ZS90) based on the principle of dynamic light scattering (DLS) to observe the surface potential and particle size distribution of the particles.

The structures appear in SMILES notation. Converted amounts (≈) assume the structure as drawn.

Regarding `O=C1OCC(=C/c2ccc3c(c2)OCO3)/C1=C\c1ccc2c(c1)OCO2` [KCY-Tai 1], in series [1], the “cytotoxicity effects on lung, breast and rectal cancer cells” value is “significant cytotoxicity effects”. In the series on p53 protein, the p53 protein activation entry is listed as “activation of p53 protein”. For the same compound, in the series on HepG2/A2 (accumulation of cyclin B1/cdc2 complex), the cell cycle effect entry is “arrested at G2/M phase”. Also, in the series on HepG2/A2, the “apoptosis markers (micronucleation, DNA fragmentation, caspase-3)” value is given as “activation of caspase-3” and the “effect on mitotic spindle (immunofluorescence staining)” value was “interrupt the formation of mitotic spindle”. For the same compound, in series [2], the IC50 was determined as 3 µg/mL (≈ 8.56 µM). In addition, the “Surface potential (mV)” value in series [3] was −22.5 mV.

On to `COc1cc(/C=C2/C(=O)OC/C2=C/c2ccc3c(c2)OCO3)cc(OC)c1OC` [KCY-Tai 2], for which, in series [1], the “cytotoxicity effects on lung, breast and rectal cancer cells” value is “significant cytotoxicity effects”. Also, the IC50 in series [2] was 0.7 µg/mL (≈ 1.77 µM). In addition, the “Surface potential (mV)” value in series [3] was −11.8 mV.
